Data from paper PMC9551036, “A selective and orally bioavailable VHL-recruiting PROTAC achieves SMARCA2 degradation in vivo” (Nature Communications, 2022).
Where “and” joins values, the source holds several entries; their conditions need not be identical. Equal values may be shown once. Read-outs that look alike come from different tables or passages of the source.

Columns and labels:
[1] = Microsomal stability; format: in vitro ADME; conditions: for Mic. Stab. Mouse QH / Mic. Stab. Mouse: mouse liver microsomes; for Mic. Stab. Rat QH / Mic. Stab. Rat: rat liver microsomes
Protocol: […] Reactions were terminated by addition of acetonitrile and precipitates separated by centrifugation. Compound concentrations in supernatants were measured by HPLC-MS/MS and clearance was calculated from compound half-lives using the well-stirred liver model.

[2] = Solubility testing; format: physicochemical; conditions: for solubility at 24 h: buffer, kinetic from dmso stock
Protocol: Dilution into a 1:1 mixture of acetonitrile and water was used as reference. After 24 h, the incubations were filtrated, and the filtrate was analyzed by LC-UV.

[3] = tested on: Caco-2 cell monolayer; assay: Bidirectional permeability measurement in Caco-2 cells; format: in vitro ADME
Protocol: Bidirectional permeability of test compounds across a Caco-2 cell monolayer was measured as described[43] with a modification of preincubation time[44]: Briefly, Caco-2 cells were seeded onto Transwell inserts (#3379, Corning, Wiesbaden, Germany) at a density of 160000 cells/cm^2 and cultured in DMEM (high glucose) containing 10% fetal bovine serum for 14–21 days. Cells were incubated with culture media containing 1 µM test compound for 24 h. […] Samples were taken at different time points for up to 2 h. Test compound in the samples was quantified with LC-MS/MS. To elucidate the role of drug transporter P-gp in the transcellular transport, permeability measurement was performed in the absence and presence of the selective P-gp inhibitor zosuquidar (5 µM final concentration). Apparent permeability coefficients (Papp,AB, Papp,BA) were calculated as follows:1 Papp,AB=Q_AB/C0×s×t 2 Papp,BA=Q_BA/C0×s×t where Q is the amount of compound recovered in the receiver compartment after the incubation time t, C0 the initial compound concentration given to the donor compartment, and s the surface area of the Transwell inserts. Efflux ratio is calculated as the quotient of Papp,BA (mean of duplicate) to Papp,AB (mean of duplicate). […] In addition, Transepithelial electrical resistance (TEER) values were measured for each plate before the permeability assay. All three parameters (efflux of the reference substrates, Papp values of the low permeable compound, and TEER values) were used to ensure the quality of the assays.

[4] = molecular target: T1, PBRM1BD5 (Homo sapiens, UniProt P40337+Q86U86); assay: TR-FRET ternary complex affinity and cooperativity, PBRM1; format: binding; conditions: TR-FRET competition for PBRM1BD5, + VCB; mean ± SD; read-out: TR-FRET Ternary PBRM1BD EC50 (PROTAC + VCB)
T1 construct: GST (TEV site) (N); His6 (TEV site) (N, cleaved yes); made in house; host or cells: PBRM1^BD5: Escherichia coli BL21(DE3)
T1 sequence (Q86U86 645-766): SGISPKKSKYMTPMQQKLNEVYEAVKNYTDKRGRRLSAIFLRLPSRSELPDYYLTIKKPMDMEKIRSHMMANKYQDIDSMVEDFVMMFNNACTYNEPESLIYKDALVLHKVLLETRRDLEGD
T1 sequence (P40337 54-213): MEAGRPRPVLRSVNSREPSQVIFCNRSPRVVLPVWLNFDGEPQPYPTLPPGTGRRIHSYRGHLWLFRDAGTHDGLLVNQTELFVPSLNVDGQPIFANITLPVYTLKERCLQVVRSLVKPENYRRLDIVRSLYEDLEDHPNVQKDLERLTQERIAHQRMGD
T1 sequence (Q15369 17-112 partner): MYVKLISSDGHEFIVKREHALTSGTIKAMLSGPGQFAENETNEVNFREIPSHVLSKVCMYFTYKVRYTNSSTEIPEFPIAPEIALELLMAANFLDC
T1 sequence (Q15370 1-104 partner): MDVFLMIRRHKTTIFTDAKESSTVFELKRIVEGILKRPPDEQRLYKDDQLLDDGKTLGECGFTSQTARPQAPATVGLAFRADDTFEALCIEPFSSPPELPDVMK

[5] = tested on: VCB: PROTAC: SMARCA2^BD ternary complex; assay: TR-FRET ternary complex affinity and cooperativity, SMARCA2; format: binding, human; conditions: ratio TR-FRET EC50 / TR-FRET EC50 +VCB measured in the same run, SMARCA2BD
[6] = tested on: PBRM1BD5; assay: TR-FRET ternary complex affinity and cooperativity, PBRM1; format: binding; conditions: ratio TR-FRET EC50 / TR-FRET EC50 +VCB measured in the same run, PBRM1BD5
[7] = pH 4.5, aqueous buffer, pH 4.5, read-out: Solubility pH 4.5
[8] = pH 6.8, aqueous buffer, pH 6.8, read-out: Solubility pH 6.8

| Compound | Mic. Stab. Human QH ([1]; human liver microsomes) | Mic. Stab. Mouse QH [1] | Mic. Stab. Rat QH [1] | solubility at 24 h [2, 7] | solubility at 24 h [2, 8] | Caco-2 Efflux ratio ([3]; Caco-2) | Caco-2 Pab ([3]; Caco-2, a to b) | EC50 [4] | Solubility pH 4.5 ([2]; pH 4.5) | Solubility pH 6.8 ([2]; pH 6.8) | Mic. Stab. Human ([1]; human liver microsomes) | Mic. Stab. Mouse [1] | Mic. Stab. Rat [1] | Mic. Stab. Human degradation without NADPH ([1]; human liver microsomes, without NADPH) | cooperativity α (SMARCA2BD) [5] | cooperativity α (PBRM1BD) [6] | Caco-2 Pab ([3]; Caco-2) |
| --- | --- | --- | --- | --- | --- | --- | --- | --- | --- | --- | --- | --- | --- | --- | --- | --- | --- |
| O=c1nc2n(C3CCCC3)c3ccccc3n2c2cccc(Br)c12 [compound 1] | 87.940% and 88.090% | 86.850% | 87.000% and 86.360% | < 1 µg/mL | < 1 µg/mL | 0.8 | 3.09e-05 cm/s | 131 ± 8 nM |  |  |  |  |  |  |  |  |  |
| CN1CCN(c2nc(=O)c3c(Br)cccc3o2)CC1 [compound 15] |  |  |  |  |  |  |  |  | >83.000 ug/mL | >82.000 ug/mL |  |  |  |  |  |  |  |
| CN1CCN(c2nc(=O)c3c(I)cccc3o2)CC1 [compound 16] |  |  |  |  |  |  |  |  | >97.000 ug/mL | >97.000 ug/mL |  |  |  |  |  |  |  |
| CN1CCC(c2ccc3c(c2)n(C2CCCC2)c2nc(=O)c4c(Br)cccc4n32)CC1 [compound 3] | <24.400% | 34.400% and 53.600% and 50.410% | < 23.100% and 27.400% and 28.840% | > 110 µg/mL | > 100 µg/mL | 0.8 | 2.83e-05 cm/s | 31 ± 11 nM | > 100.000 ug/mL | > 110.000 ug/mL and 94.000 ug/mL | <24 % QH | 43 ± 10 % QH | 28 ± 1 % QH |  |  |  |  |
| Cc1ncsc1-c1ccc([C@H](CC[C@H](C)CCN2CCC(c3ccc4c(c3)n(C3CCCC3)c3nc(=O)c5c(Br)cccc5n43)CC2)NC(=O)[C@@H]2C[C@H](O)CN2C(=O)[C@@H](NC(=O)C2(F)CC2)C(C)(C)C)cc1 [compound 12] | 31.400% | <24.200 NADPH control off limits % | <23.100% | < 1 µg/mL | < 1 µg/mL |  |  | 78 ± 7 nM |  |  | <24 % QH | <24 % QH | <23 % QH | 60% | 1.1 ± 0.3 | 1.0 ± 0.0 |  |
| CN1CCN(c2nc(=O)c3c(Cl)cccc3o2)CC1 [compound 13] |  |  |  |  |  | 0.606 and 0.6 | 9.26e-05 cm/s |  | >70.000 ug/mL | >71.000 ug/mL |  |  |  |  |  |  | 93 10-6 cm/s |
| Nc1cccc2c1c(=O)nc1n(C3CCCC3)c3ccccc3n21 [compound 2] | 91.040% |  | 88.170% | < 1 µg/mL | < 1 µg/mL | 0.5 | 3.7e-05 cm/s | 959 ± 53 nM |  |  |  |  |  |  |  |  |  |
| Cc1ncsc1-c1ccc(CNC(=O)[C@@H]2C[C@H](O)CN2C(=O)[C@@H](NC(=O)C2(F)CC2)C(C)(C)C)c(OCCN2CCC(c3ccc4c(c3)n(C3CCCC3)c3nc(=O)c5c(Br)cccc5n43)CC2)c1 [compound 19] | 81.450% | 67.500% | 27.950% |  |  |  |  | 40 ± 1 nM | <1.000 ug/mL | <1.000 ug/mL | 82 % QH | 68 % QH | 28 % QH |  | 1.2 ± 0.1 | 1.0 ± 0.1 |  |
